Reference: ChEMBL document CHEMBL1201862, “PubChem BioAssay data set” (2004)
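Protocol summary: plate cells (96-well), add compound at 5 concentrations, incubate 48 h, interpolate endpoints linearly. The concentration for 50% growth inhibition is given as GI50.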 Activity calls are given as the source filed them. No stated cut-off is given here; in the data, active = GI50 up to about 1.1 µM and inactive = higher.

Assays:
Assay in all cases: NCI tumour cell line growth inhibition, 48 h
[1] = system: SF-268
[2] = system: HCT-15
[3] = system: HL-60
[4] = system: SNB-75
[5] = system: UACC-62
[6] = system: HCC 2998
[7] = system: TK-10
[8] = system: NCI-H460
[9] = system: A549
[10] = system: SK-MEL-2
[11] = system: PC-3
[12] = system: BT-549
[13] = system: 786-0
[14] = system: IGROV-1
[15] = system: NCI/ADR-RES
[16] = system: SR
[17] = system: OVCAR-3
[18] = system: Hs-578T
[19] = system: MOLT-4
[20] = system: SF-539

Structure (SMILES) | GI50 [1] | GI50 [2] [µM] | GI50 [3] | GI50 [4] | GI50 [5] | GI50 [6] | GI50 [7] | GI50 [8] | GI50 [9] | GI50 [10] | GI50 [11] | GI50 [12] | GI50 [13] | GI50 [14] | GI50 [15] | GI50 [16] | GI50 [17] | GI50 [18] | GI50 [19] | GI50 [20]
CCCn1cnc2c(SCC(=O)O)nc(N)nc21 | > 100 µM (inactive) | > 100 | > 100 µM (inactive) | > 100 µM (inactive) | > 100 µM (inactive) | > 100 µM (inactive) | > 100 µM (inactive) | > 100 µM (inactive) | > 100 µM (inactive) | > 100 µM (inactive) | > 100 µM (inactive) | > 100 µM (inactive) | > 100 µM (inactive) | > 100 µM (inactive) | > 100 µM (inactive) | > 100 µM (inactive) | > 100 µM (inactive) | > 100 µM (inactive) |  | 
COc1ccc2c(=O)cc(-c3ccncc3)oc2c1OC | 21.8 µM (inactive) | 28.5 | 19.5 µM (inactive) | 18.2 µM (inactive) | 14 µM (inactive) | 25.3 µM (inactive) | 28.1 µM (inactive) | 20.7 µM (inactive) | 33.1 µM (inactive) | 25.3 µM (inactive) | 23.8 µM (inactive) | 26 µM (inactive) | 27.9 µM (inactive) | 20.8 µM (inactive) | 34 µM (inactive) | 6.67 µM (inactive) | 17.5 µM (inactive) | 15.7 µM (inactive) | 7.57 µM (inactive) | 
CCOC(=O)CCc1c(C(=O)OCC)[nH]c(/C=C2/NC(=O)C(C)=C2CC)c1C | 10.2 µM (inactive) | 3.47 | 5.01 µM (inactive) | 15.4 µM (inactive) | 4.9 µM (inactive) |  | 24.7 µM (inactive) | 32.7 µM (inactive) | 24.3 µM (inactive) | 18.3 µM (inactive) | 22.1 µM (inactive) | 1.61 µM (inactive) | 15.8 µM (inactive) | 8.38 µM (inactive) | 10.4 µM (inactive) | 4.51 µM (inactive) | 3.88 µM (inactive) | 25.1 µM (inactive) | 0.0224 µM (active) | 19.5 µM (inactive)
N#CC12C(=O)N3C(=NC(c4ccccc4)NC3c3ccccc3)C1(C#N)C(c1ccccc1)NC1=C2CCC1 (configuration not stated) | > 100 µM (inactive) | > 100 | > 100 µM (inactive) | > 100 µM (inactive) | > 100 µM (inactive) | > 100 µM (inactive) | > 100 µM (inactive) | > 100 µM (inactive) | > 100 µM (inactive) | > 100 µM (inactive) | > 100 µM (inactive) | > 100 µM (inactive) | > 100 µM (inactive) | > 100 µM (inactive) | > 100 µM (inactive) |  | > 100 µM (inactive) | > 100 µM (inactive) | > 100 µM (inactive) | 
O=C(CN1CCN(c2ccccc2)CC1)c1ccc2[nH]c(=O)oc2c1 | > 100 µM (inactive) | > 100 | > 100 µM (inactive) | > 100 µM (inactive) | > 100 µM (inactive) |  | > 100 µM (inactive) | > 100 µM (inactive) |  | > 100 µM (inactive) | > 100 µM (inactive) | > 100 µM (inactive) | > 100 µM (inactive) | > 100 µM (inactive) | 49.5 µM (inactive) | > 100 µM (inactive) | > 100 µM (inactive) | 70 µM (inactive) | > 100 µM (inactive) | 36.5 µM (inactive)
c1csc(-c2cc(-c3cccs3)c(-c3cccs3)s2)c1 | > 100 µM (inactive) | 49.8 |  | 21.2 µM (inactive) | 54.2 µM (inactive) | 58.5 µM (inactive) | > 100 µM (inactive) | 47.2 µM (inactive) | > 100 µM (inactive) |  | > 100 µM (inactive) | > 100 µM (inactive) | > 100 µM (inactive) | > 100 µM (inactive) | > 100 µM (inactive) | 51.1 µM (inactive) | > 100 µM (inactive) | > 100 µM (inactive) | 36.1 µM (inactive) | > 100 µM (inactive)
CN1CCN(c2nc3c(c(=O)n(C)c(=O)n3C)n2C)CC1 | > 100 µM (inactive) | > 100 | > 100 µM (inactive) | > 100 µM (inactive) | > 100 µM (inactive) | > 100 µM (inactive) | > 100 µM (inactive) | > 100 µM (inactive) | > 100 µM (inactive) | > 100 µM (inactive) | > 100 µM (inactive) | > 100 µM (inactive) | > 100 µM (inactive) | > 100 µM (inactive) | > 100 µM (inactive) | > 100 µM (inactive) | > 100 µM (inactive) | > 100 µM (inactive) |  | 
CC(=O)OCC1OC(Nc2ccc3nc(C)n(-c4ccccc4)c(=O)c3c2)C(OC(C)=O)C(OC(C)=O)C1OC(C)=O (configuration not stated) | > 50 µM (inactive) | > 50 | 23.7 µM (inactive) | > 50 µM (inactive) | 41.3 µM (inactive) | > 50 µM (inactive) | > 50 µM (inactive) | 15.5 µM (inactive) |  | > 50 µM (inactive) | > 50 µM (inactive) | > 50 µM (inactive) | > 50 µM (inactive) | > 50 µM (inactive) | > 50 µM (inactive) | 24.1 µM (inactive) | > 50 µM (inactive) | > 50 µM (inactive) | > 50 µM (inactive) | 
Cc1c(S(=O)(=O)/N=C(\NN)Nc2ccc(Cl)cc2)sc2ccc(Cl)cc12 | 18.8 µM (inactive) | 16.6 | 32.4 µM (inactive) | 14.8 µM (inactive) | 14.2 µM (inactive) |  | 17 µM (inactive) | 16.6 µM (inactive) | 16.9 µM (inactive) | 16.3 µM (inactive) | 15.5 µM (inactive) | 16.7 µM (inactive) | 17.5 µM (inactive) | 15.2 µM (inactive) | 18 µM (inactive) | 22.2 µM (inactive) | 16.6 µM (inactive) | 36.6 µM (inactive) | 13.1 µM (inactive) | 14.3 µM (inactive)
CC(=O)C(=[N+]=[N-])C(=O)OCCOC(=O)C(=[N+]=[N-])C(C)=O | > 1 µM (active) | > 1 | > 1 µM (active) | > 1 µM (active) | > 1 µM (active) | > 1 µM (active) | > 1 µM (active) | > 1 µM (active) | > 1 µM (active) | > 1 µM (active) | > 1 µM (active) | > 1 µM (active) | > 1 µM (active) | > 1 µM (active) |  | > 1 µM (active) | > 1 µM (active) | > 1 µM (active) | > 1 µM (active) | > 1 µM (active)
O=C1c2ccccc2C(=O)c2sc(Nc3ccc([N+](=O)[O-])cc3)nc21 | 6.93 µM (inactive) | 5.32 | 0.984 µM (active) | 7.89 µM (inactive) | 3.08 µM (inactive) | 16 µM (inactive) | 12.2 µM (inactive) | 10 µM (inactive) | 17.5 µM (inactive) | 13.6 µM (inactive) | 7.38 µM (inactive) | 14.3 µM (inactive) | 5.27 µM (inactive) | 12.5 µM (inactive) |  | 2.63 µM (inactive) | 2.24 µM (inactive) | 1.32 µM (inactive) | 1.92 µM (inactive) | 7.91 µM (inactive)
N#Cc1c(N)c(-c2ccc(Cl)cc2)c(F)c2ccccc12 | 9.82 µM (inactive) | > 100 |  | 11.1 µM (inactive) | > 100 µM (inactive) | > 100 µM (inactive) | > 100 µM (inactive) | > 100 µM (inactive) | > 100 µM (inactive) | > 100 µM (inactive) | > 100 µM (inactive) | > 100 µM (inactive) | > 100 µM (inactive) | > 100 µM (inactive) | > 100 µM (inactive) |  | > 100 µM (inactive) | 7.35 µM (inactive) |  | > 100 µM (inactive)
O=C(CCCCCCCCC(=O)N1C(=O)CC(=O)N(c2ccc(Cl)cc2)C1=S)N1C(=O)CC(=O)N(c2ccc(Cl)cc2)C1=S | > 100 µM (inactive) | 35.6 |  | > 100 µM (inactive) | 15.5 µM (inactive) | 38.9 µM (inactive) | > 100 µM (inactive) | 29.6 µM (inactive) | 34.2 µM (inactive) | 49.1 µM (inactive) | 57.1 µM (inactive) | 67 µM (inactive) | 67.9 µM (inactive) |  | 24.5 µM (inactive) | 8.93 µM (inactive) | 51.3 µM (inactive) | > 100 µM (inactive) | 19.8 µM (inactive) | > 100 µM (inactive)
CC(C)(C)OC(=O)NCC(c1c[nH]c2ccc(Br)cc12)c1c[nH]c2ccc(Br)cc12 | 8.43 µM (inactive) | 7.73 | 11.7 µM (inactive) |  | 11.1 µM (inactive) | 5.18 µM (inactive) | 12.6 µM (inactive) |  | 5.18 µM (inactive) | 8.04 µM (inactive) | 3.55 µM (inactive) | 12.4 µM (inactive) | 3.85 µM (inactive) | 4.07 µM (inactive) | 6.82 µM (inactive) |  | 4.54 µM (inactive) | 19.3 µM (inactive) |  | 14.4 µM (inactive)
O=c1c(Cc2ccccc2Cc2c(O)oc3ccccc3c2=O)c(O)oc2ccccc12 | > 100 µM (inactive) | > 100 | > 100 µM (inactive) | 31.6 µM (inactive) | > 100 µM (inactive) |  | > 100 µM (inactive) | > 100 µM (inactive) | > 100 µM (inactive) | > 100 µM (inactive) | > 100 µM (inactive) | > 100 µM (inactive) | > 100 µM (inactive) | > 100 µM (inactive) | > 100 µM (inactive) |  | > 100 µM (inactive) | > 100 µM (inactive) | > 100 µM (inactive) | > 100 µM (inactive)
